{
  "source": "patent US7531533B2",
  "about": "“6-Membered heterocyclic compound and use thereof” (Asahi Kasei Pharma Corporation, priority 2005, dated 2009)",
  "key": {"human EP4 receptor": {"target": "T1, human EP4 receptor (Homo sapiens, UniProt P35408)", "T1 construct": "expressed in transfected cells", "T1 sequence (P35408 whole entry)": "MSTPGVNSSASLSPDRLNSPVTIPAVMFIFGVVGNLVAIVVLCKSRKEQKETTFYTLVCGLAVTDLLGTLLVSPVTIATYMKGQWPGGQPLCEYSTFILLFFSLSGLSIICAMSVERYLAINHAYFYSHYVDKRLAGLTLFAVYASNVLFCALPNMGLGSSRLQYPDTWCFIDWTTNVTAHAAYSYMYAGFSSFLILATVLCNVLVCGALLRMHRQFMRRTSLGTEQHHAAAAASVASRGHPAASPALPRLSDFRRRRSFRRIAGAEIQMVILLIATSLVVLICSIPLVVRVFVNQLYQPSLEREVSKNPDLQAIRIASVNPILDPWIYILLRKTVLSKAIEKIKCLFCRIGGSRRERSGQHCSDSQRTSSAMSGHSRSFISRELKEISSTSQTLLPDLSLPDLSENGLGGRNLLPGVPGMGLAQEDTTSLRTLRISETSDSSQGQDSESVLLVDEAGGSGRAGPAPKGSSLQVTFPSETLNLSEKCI", "assay": "Agonist activity measurement (cAMP production) using human EP4 receptor expressing HEK293 cells", "format": "cell-based", "conditions": "test compound concentration of 10 μM, HEK293 stably expressing human EP4", "procedure": "Agonist Activity Measurement Using Human EP4 Receptor Expressing Cells\nIn order to investigate EP4 receptor agonist activity of the compounds of the present invention, cAMP production was measured by using HEK293 in which the human EP4 receptor was stably expressed.\nAs a result of searching for prostaglandin E receptors using Refseq Database, the gene information of human EP4 (NM_000958) receptor was obtained. On the basis of the sequence information, the human EP4 receptor gene was cloned by PCR using human cDNA as a template in a conventional manner to establish HEK293 in which the human EP4 receptor was stably expressed. These cells were inoculated on a 96-well poly-D-lysine coated plate at a density of 2×10^4 cells/well, and cultured for 1 day. The medium in the wells was removed by aspiration, 80 μL of Dulbecco's modified Eagle's medium was added to each well, and the cells were incubated at 37° C. for 15 minutes. Then, 20 μL of an assay medium (Dulbecco's modified Eagle's medium containing 100 mM HEPES and 1 mM IBMX) containing PGE2 or a test compound (at 5-fold concentration of the final concentration) was added to start the reaction, and the reaction was allowed at 37° C. for 30 minutes. Then, the medium was removed by aspiration, and the reaction was terminated by adding 100 μL of Assay/Lysis Buffer included in cAMP Screen Kit (produced by Applied Biosystems). Then, the cells were incubated at 37° C. for 30 minutes, and used as a sample for cAMP quantification. By using this sample, amount of cAMP in the sample was quantified according to the method attached to cAMP Screen Kit."}, "rat bone marrow cells": {"tested_on": "rat bone marrow cells", "assay": "Bone nodule formation action in rat bone marrow cells", "format": "cell-based", "procedure": "Bone Nodule Formation Action in Rat Bone Marrow Cells\nIn order to investigate osteogenesis promoting action of the compounds of the present invention, the compounds were made to act on cultured rat bone marrow cells, and the number of formed bone nodule was counted.\nAs rat bone marrow cells, mesenchymal cells (KEM100) derived from rat bone marrow purchased from Dainippon Pharmaceutical were used. The cells stored in liquid nitrogen were thawed at 37° C., then suspended in a phosphate-buffered saline, and centrifuged at 900 rpm for 5 minutes. The supernatant was removed, and the cells were suspended again in a MEM culture medium (produced by GIBCO) containing 10% fetal bovine serum (produced by GIBCO). After the number of cells was counted, the cells were inoculated on a 12-well plate (produced by IWAKI) at a cell density of 1×10^4 cells/cm^2, and cultured at 37° C. in a 5% CO2 incubator. From the next day of the inoculation, the medium was exchanged with the α MEM culture medium containing 10% fetal bovine serum every 2 or 3 days, and the cells were proliferated to the confluent state. The addition of the compound was conducted from the next day after the cells reached confluent. […]"}},
  "data": [
    {"smiles": "O=C(O)c1ccc(CCN2C(=O)CCCN2CCC(O)c2cccc(-c3ccc(F)cc3)c2)cc1", "note": "(stereo not shown) [IAH-H004, 4-[2-(2-{3-hydroxy-3-[3-(4-fluorophenyl)phenyl]propyl}-6-oxotetrahydropyridazin-1-yl)ethyl]benzoic acid]", "values": [
      {"measurement": "increase of cAMP", "setting": "human EP4 receptor", "value": "Increase of cAMP was observed"}
    ]},
    {"smiles": "O=C(O)c1ccc(OCCN2C(=O)CCCN2CCC(O)Cc2cccc(C(F)(F)F)c2)cc1", "note": "(stereo not shown) [IEH-H001, 4-[2-(2-{3-hydroxy-4-[3-(trifluoromethyl)phenyl]butyl}-6-oxo-tetrahydropyridazin-1-yl)ethyloxy]benzoic acid]", "values": [
      {"measurement": "increase of cAMP", "setting": "human EP4 receptor", "value": "Increase of cAMP was observed"}
    ]},
    {"smiles": "O=C(O)C=Cc1cccc(CN2C(=O)CCCN2CCC(O)Cc2cccc(C(F)(F)F)c2)c1", "note": "(stereo not shown) [IOH-H001, 3-{3-[(2-{3-hydroxy-4-[3-(trifluoromethyl)phenyl]butyl}-6-oxotetrahydropyridazin-1-yl)methyl]phenyl}acrylic acid]", "values": [
      {"measurement": "increase of cAMP", "setting": "human EP4 receptor", "value": "Increase of cAMP was observed"}
    ]},
    {"smiles": "O=C(O)c1ccc(CCN2C(=O)CCCN2CCC(O)Cc2cccc(C(F)(F)F)c2)cc1", "note": "(stereo not shown) [IAH-H001, 4-[2-(2-{3-hydroxy-4-[3-(trifluoromethyl)phenyl]butyl}-6-oxotetrahydropyridazin-1-yl)ethyl]benzoic acid]", "values": [
      {"measurement": "increase of cAMP", "setting": "human EP4 receptor", "value": "Increase of cAMP was observed"},
      {"measurement": "bone nodule formation promoting action (number of mineralized bone nodule formed)", "setting": "rat bone marrow cells; concentration ranging from 1 nM to 10 μM, von Kossa staining 21 to 28 days after addition", "value": "exhibited an bone nodule formation promoting action in a dose-dependent manner"},
      {"measurement": "cytotoxicity", "setting": "rat bone marrow cells; rat bone marrow cells, 1 nM to 10 μM", "value": "no cytotoxicity"}
    ]},
    {"smiles": "O=C(O)c1ccc(CCN2C(=O)CCCN2CCC(O)c2ccc(F)cc2)cc1", "note": "(stereo not shown) [IAH-H003, 4-(2-{2-[3-hydroxy-3-(4-fluorophenyl)propyl]-6-oxotetrahydro-pyridazin-1-yl}ethyl)benzoic acid]", "values": [
      {"measurement": "increase of cAMP", "setting": "human EP4 receptor", "value": "Increase of cAMP was observed"}
    ]},
    {"smiles": "O=C(O)c1ccc(CCN2C(=O)CCCN2CCC(O)Cc2cccc(Cl)c2)cc1", "note": "(stereo not shown) [IAH-H024, 4-[2-(2-{4-[3-chlorophenyl]-3-hydroxybutyl}-6-oxotetrahydropyridazin-1-yl)ethyl]benzoic acid]", "values": [
      {"measurement": "increase of cAMP", "setting": "human EP4 receptor", "value": "Increase of cAMP was observed"}
    ]},
    {"smiles": "O=C(O)c1ccc(CCCN2C(=O)CCCN2CCC(O)Cc2cccc(C(F)(F)F)c2)cc1", "note": "(stereo not shown) [IGH-H001, 4-[3-(2-{3-hydroxy-4-[3-(trifluoromethyl)phenyl]butyl}-6-oxotetrahydropyridazin-1-yl)propyl]benzoic acid]", "values": [
      {"measurement": "increase of cAMP", "setting": "human EP4 receptor", "value": "Increase of cAMP was observed"}
    ]},
    {"smiles": "O=C(O)c1ccc(CCCN2C(=O)CCCN2CCC(O)Cc2cccc(C(F)(F)F)c2)o1", "note": "(stereo not shown) [IHH-H001, 5-[3-(2-{3-hydroxy-4-[3-(trifluoromethyl)phenyl]butyl}-6-oxotetrahydropyridazin-1-yl)propyl]furan-2-carboxylic acid]", "values": [
      {"measurement": "increase of cAMP", "setting": "human EP4 receptor", "value": "Increase of cAMP was observed"}
    ]},
    {"smiles": "COc1cccc(CC(O)CCN2CCCC(=O)N2CCc2ccc(C(=O)O)cc2)c1", "note": "(stereo not shown) [IAH-H005, 4-(2-{2-[3-hydroxy-4-(3-methoxyphenyl)butyl]-6-oxotetrahydro-pyridazin-1-yl}ethyl)benzoic acid]", "values": [
      {"measurement": "increase of cAMP", "setting": "human EP4 receptor", "value": "Increase of cAMP was observed"}
    ]},
    {"smiles": "O=C(O)Cc1cccc(CN2C(=O)CCCN2CCC(O)Cc2cccc(C(F)(F)F)c2)c1", "note": "(stereo not shown) [ILH-H001, 2-{3-[(2-{3-hydroxy-4-[3-(trifluoromethyl)phenyl]butyl}-6-oxotetrahydropyridazin-1-yl)methyl]phenyl}acetic acid]", "values": [
      {"measurement": "increase of cAMP", "setting": "human EP4 receptor", "value": "Increase of cAMP was observed"}
    ]},
    {"smiles": "O=C(O)c1cccc(OCCN2C(=O)CCCN2CCC(O)Cc2cccc(C(F)(F)F)c2)c1", "note": "(stereo not shown) [IDH-H001, 3-[2-(2-{3-hydroxy-4-[3-(trifluoromethyl)phenyl]butyl}-6-oxotetrahydropyridazin-1-yl)ethyloxy]benzoic acid]", "values": [
      {"measurement": "increase of cAMP", "setting": "human EP4 receptor", "value": "Increase of cAMP was observed"}
    ]},
    {"smiles": "O=C(O)Cc1ccc(CN2C(=O)CCCN2CCC(O)Cc2cccc(C(F)(F)F)c2)cc1", "note": "(stereo not shown) [IKH-H001, 2-{4-[(2-{3-hydroxy-4-[3-(trifluoromethyl)phenyl]butyl}-6-oxotetrahydropyridazin-1-yl)methyl]phenyl}acetic acid]", "values": [
      {"measurement": "increase of cAMP", "setting": "human EP4 receptor", "value": "Increase of cAMP was observed"}
    ]},
    {"smiles": "O=C(O)CCc1cccc(CN2C(=O)CCCN2CCC(O)Cc2cccc(C(F)(F)F)c2)c1", "note": "(stereo not shown) [IPH-H001, 3-{3-[(2-{3-hydroxy-4-[3-(trifluoromethyl)phenyl]butyl}-6-oxotetrahydropyridazin-1-yl)methyl]phenyl}propionic acid]", "values": [
      {"measurement": "increase of cAMP", "setting": "human EP4 receptor", "value": "Increase of cAMP was observed"}
    ]},
    {"smiles": "O=C(O)c1ccc(CCN2C(=S)CCCN2CCC(O)Cc2cccc(C(F)(F)F)c2)cc1", "note": "(stereo not shown) [ITH-H001, 4-[2-(2-{3-hydroxy-4-[3-(trifluoromethyl)phenyl]butyl}-6-thioxotetrahydropyridazin-1-yl)ethyl]benzoic acid]", "values": [
      {"measurement": "increase of cAMP", "setting": "human EP4 receptor", "value": "Increase of cAMP was observed"}
    ]},
    {"smiles": "O=C(O)COc1cccc(CN2C(=O)CCCN2CCC(O)Cc2cccc(C(F)(F)F)c2)c1", "note": "(stereo not shown) [ICH-H001, 2-{3-[(2-{3-hydroxy-4-[3-(trifluoromethyl)phenyl]butyl}-6-oxotetrahydropyridazin-1-yl)methyl]phenyloxy}acetic acid]", "values": [
      {"measurement": "increase of cAMP", "setting": "human EP4 receptor", "value": "Increase of cAMP was observed"}
    ]},
    {"smiles": "O=C(O)c1ccc(CCN2C(=O)CCCN2CCC(O)c2ccccc2)cc1", "note": "(stereo not shown) [IAH-H002]", "values": [
      {"measurement": "increase of cAMP", "setting": "human EP4 receptor", "value": "Increase of cAMP was observed"}
    ]},
    {"smiles": "O=C(O)c1cccc(CCCN2C(=O)CCCN2CCC(O)Cc2cccc(C(F)(F)F)c2)c1", "note": "(stereo not shown) [IFH-H001, 3-[3-(2-{3-hydroxy-4-[3-(trifluoromethyl)phenyl]butyl}-6-oxo-tetrahydropyridazin-1-yl)propyl]benzoic acid]", "values": [
      {"measurement": "increase of cAMP", "setting": "human EP4 receptor", "value": "Increase of cAMP was observed"}
    ]}
  ]
}
